From BindingDB's records for doi:10.1021/jm00210a006 (1979)
Values joined by “and” are separate entries in the source; they are usually repeats but may differ in a detail not shown here. Equal values may be shown once.

target: T1, Complement C1s subcomponent (Homo sapiens, UniProt P09871); experiment: Competitive inhibition of esterase activity of human activated C1s subunit of first complement component assessed as decrease in p-nitrophenol production using N-Z-L-Tyr-ONp as substrate by spectrophotometric analysis
T1 sequence (P09871 whole entry): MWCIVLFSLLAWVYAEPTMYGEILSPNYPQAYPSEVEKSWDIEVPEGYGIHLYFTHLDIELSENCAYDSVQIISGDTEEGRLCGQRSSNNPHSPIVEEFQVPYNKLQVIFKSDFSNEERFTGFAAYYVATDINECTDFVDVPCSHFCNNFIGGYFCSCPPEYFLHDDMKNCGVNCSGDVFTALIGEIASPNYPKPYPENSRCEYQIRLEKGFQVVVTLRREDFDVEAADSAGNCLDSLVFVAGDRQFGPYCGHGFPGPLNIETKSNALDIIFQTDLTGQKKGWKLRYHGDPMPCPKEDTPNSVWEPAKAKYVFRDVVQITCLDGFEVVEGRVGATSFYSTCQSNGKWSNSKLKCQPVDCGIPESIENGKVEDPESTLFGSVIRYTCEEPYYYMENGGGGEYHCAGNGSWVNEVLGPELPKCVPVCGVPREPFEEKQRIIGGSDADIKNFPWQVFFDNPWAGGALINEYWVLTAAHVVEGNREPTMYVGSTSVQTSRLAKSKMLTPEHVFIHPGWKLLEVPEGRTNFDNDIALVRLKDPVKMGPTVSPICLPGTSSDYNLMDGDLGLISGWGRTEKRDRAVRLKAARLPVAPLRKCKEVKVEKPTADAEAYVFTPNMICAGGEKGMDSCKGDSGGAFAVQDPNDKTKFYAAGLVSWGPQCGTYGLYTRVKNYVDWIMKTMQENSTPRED

**Q.** With `COc1cccc(C(=N)N)c1` as the compound, how does the Ki read?
**A.** 160 µM

**Q.** For `Cc1ccc(C(=N)N)cc1C`, which Ki is on record?
**A.** 9990 µM and 1600 µM and 4000 µM and 6300 µM

**Q.** With `N=C(N)c1ccc(CC(=O)C(=O)O)cc1` as the compound, how does the Ki read?
**A.** 158 µM and 125 µM and 99.9 µM and 79.4 µM

**Q.** How did the Ki turn out when `Cc1cc(C)cc(C(=N)N)c1` was run?
**A.** 630 µM and 250 µM and 79 µM

**Q.** Which Ki does the source give for `N=C(N)c1cccc(Br)c1` here?
**A.** 100 µM

**Q.** For `N=C(N)c1cccc(OCCCOc2ccccc2)c1`, which Ki is on record?
**A.** 12.5 µM and 15.8 µM and 20 µM and 10 µM

target: T1, Complement C1s subcomponent; experiment: Competitive inhibition of esterase activity of human activated C1s subunit of first complement component assessed as decrease in p-nitrophenol production using N-Z-L-Lys-ONp as substrate by spectrophotometric analysis

**Q.** How did the Ki turn out when `N=C(N)c1cccc(CC(=O)C(=O)O)c1` was run?
**A.** 2510 µM

target: Plasminogen (Homo sapiens, UniProt P00747); experiment: Competitive inhibition of esterase activity of human plasmin assessed as assessed as decrease in p-nitrophenol production using N-Z-L-Tyr-ONp as substrate by spectrophotometric analysis
Sequence (P00747 97-580 limits assumed): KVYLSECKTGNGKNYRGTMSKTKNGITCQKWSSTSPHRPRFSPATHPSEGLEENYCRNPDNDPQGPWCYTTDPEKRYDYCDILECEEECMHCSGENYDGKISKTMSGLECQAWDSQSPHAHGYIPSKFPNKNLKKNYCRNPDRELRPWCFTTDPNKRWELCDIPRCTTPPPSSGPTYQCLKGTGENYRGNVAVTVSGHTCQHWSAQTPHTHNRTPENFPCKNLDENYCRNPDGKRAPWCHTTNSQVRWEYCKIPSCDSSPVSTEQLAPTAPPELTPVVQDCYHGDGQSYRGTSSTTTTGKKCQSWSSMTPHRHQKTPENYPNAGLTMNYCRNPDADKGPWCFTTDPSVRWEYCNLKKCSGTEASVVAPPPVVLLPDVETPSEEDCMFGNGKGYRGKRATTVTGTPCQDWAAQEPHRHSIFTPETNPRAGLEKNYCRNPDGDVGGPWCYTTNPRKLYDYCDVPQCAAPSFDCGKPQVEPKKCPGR
Sequence (P00747 581-810 limits assumed): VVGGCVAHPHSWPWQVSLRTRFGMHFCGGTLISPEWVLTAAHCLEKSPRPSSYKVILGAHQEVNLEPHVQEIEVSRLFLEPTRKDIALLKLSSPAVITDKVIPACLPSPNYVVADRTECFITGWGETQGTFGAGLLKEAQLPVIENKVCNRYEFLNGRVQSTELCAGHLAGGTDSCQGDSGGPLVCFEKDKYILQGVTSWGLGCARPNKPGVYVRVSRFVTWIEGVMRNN

**Q.** How did the Ki turn out when `N=C(N)c1cccc(N)c1` was run?
**A.** 125 µM and 501 µM and 100 µM and 316 µM

**Q.** `N=C(N)c1cccc(Cc2ccccc2)c1` was tested. Which Ki did it give?
**A.** 630 µM
